According to patent publication US20220249463A1, “METHODS OF ALTERING CARDIAC REMODELING USING COMPOUNDS THAT PROMOTE GLUCOSE OXIDATION” (IMBRIA PHARMACEUTICALS, INC., priority 2019, published 2022):

Test: Stability of CV-8972 in aqueous solution at different concentrations and pH
Type: physicochemical
Protocol: The stability of CV-8972 was analyzed. Aqueous samples containing CV-8972 at different concentrations and pH were incubated for various periods and analyzed.
Form A of CV-8972 were analyzed for stability in aqueous solution. Aqueous samples containing CV-8972 at different concentrations and pH were incubated for various periods and analyzed.

[1] = 276-MBA-172 2 mg/mL pH 6 (Form A), 0 hrs, pH 6.1
[2] = 276-MBA-172 2 mg/mL pH 6 (Form A), 1 hrs, pH 6.1
[3] = 276-MBA-172 2 mg/mL pH 6 (Form A), 4 hrs, pH 6.1
[4] = 276-MBA-172 2 mg/mL pH 6 (Form A), 6 hrs, pH 6.1
[5] = 276-MBA-172 2 mg/mL pH 7 (Form A), 0 hrs, pH 6.7
[6] = 276-MBA-172 2 mg/mL pH 7 (Form A), 1 hrs, pH 6.8
[7] = 276-MBA-172 2 mg/mL pH 7 (Form A), 4 hrs, pH 6.7
[8] = 276-MBA-172 2 mg/mL pH 7 (Form A), 6 hrs, pH 6.7
[9] = 276-MBA-172 2 mg/mL pH 7 (Form A), 22 hrs, pH 6.8
[10] = 276-MBA-172 10 mg/mL pH 6 (Form A), 0 hrs, pH 6.6
[11] = 276-MBA-172 10 mg/mL pH 6 (Form A), 1 hrs, pH 6.8
[12] = 276-MBA-172 10 mg/mL pH 6 (Form A), 4 hrs, pH 6.8
[13] = 276-MBA-172 10 mg/mL pH 6 (Form A), 6 hrs, pH 6.7
[14] = 276-MBA-172 10 mg/mL pH 6 (Form A), 22 hrs, pH 6.7
[15] = 276-MBA-172 10 mg/mL pH 7 (Form A), 0 hrs, pH 7.1
[16] = 276-MBA-172 10 mg/mL pH 7 (Form A), 1 hrs, pH 7.2
[17] = 276-MBA-172 10 mg/mL pH 7 (Form A), 4 hrs, pH 7.1
[18] = 276-MBA-172 10 mg/mL pH 7 (Form A), 6 hrs, pH 7.1
[19] = 289-MBA-15-A 2 mg/mL pH 6 (Form B), 0 hrs, pH 6.9
[20] = 289-MBA-15-A 2 mg/mL pH 6 (Form B), 1 hrs, pH 6.9
[21] = 289-MBA-15-A 2 mg/mL pH 6 (Form B), 4 hrs, pH 6.8
[22] = 289-MBA-15-A 2 mg/mL pH 6 (Form B), 6 hrs, pH 6.8

COc1ccc(CN2CCN(CCOC(=O)c3cccnc3)CC2)c(OC)c1OC [CV-8972, 2-(4-(2,3,4-trimethoxybenzyl)piperazin-1-yl)ethyl nicotinate]
Retention Time 4.2 [1]: 1.29 | Retention Time 5.6 [1]: 98.01 | Decrease in purity of CV-8972 between time points [2]: 0.79 | Retention Time 2.2 [2]: 1.5 | Retention Time 4.2 [2]: 1.28 | Retention Time 5.6 [2]: 97.22 | Decrease in purity of CV-8972 between time points [3]: 0.21 | Retention Time 2.2 [3]: 2.03 | Retention Time 4.2 [3]: 0.95 | Retention Time 5.6 [3]: 97.01 | Decrease in purity of CV-8972 between time points [4]: 0.5 | Retention Time 2.2 [4]: 2.47 | Retention Time 4.2 [4]: 1.02 | Retention Time 5.6 [4]: 96.51 | Retention Time 2.2 [5]: 1.42 | Retention Time 4.2 [5]: 1.05 | Retention Time 5.6 [5]: 97.53 | Decrease in purity of CV-8972 between time points [6]: 2.47 | Retention Time 2.2 [6]: 3.31 | Retention Time 4.2 [6]: 1.06 | Retention Time 4.7 [6]: 0.57 | Retention Time 5.6 [6]: 95.06 | Decrease in purity of CV-8972 between time points [7]: 1.36 | Retention Time 2.2 [7]: 4.21 | Retention Time 2.6 [7]: 0.58 | Retention Time 4.2 [7]: 0.82 | Retention Time 4.7 [7]: 0.69 | Retention Time 5.6 [7]: 93.7 | Decrease in purity of CV-8972 between time points [8]: 1.58 | Retention Time 2.2 [8]: 5.63 | Retention Time 2.6 [8]: 0.67 | Retention Time 4.2 [8]: 0.74 | Retention Time 4.7 [8]: 0.85 | Retention Time 5.6 [8]: 92.12 | Decrease in purity of CV-8972 between time points [9]: 1.05 | Retention Time 2.2 [9]: 6.26 | Retention Time 2.6 [9]: 0.85 | Retention Time 4.2 [9]: 0.85 | Retention Time 4.7 [9]: 0.98 | Retention Time 5.6 [9]: 91.07 | Retention Time 2.2 [10]: 3.39 | Retention Time 2.6 [10]: 0.6 | Retention Time 4.2 [10]: 0.23 | Retention Time 4.7 [10]: 0.54 | Retention Time 5.6 [10]: 95.24 | Decrease in purity of CV-8972 between time points [11]: 1.81 | Retention Time 2.2 [11]: 4.81 | Retention Time 2.6 [11]: 0.81 | Retention Time 4.2 [11]: 0.23 | Retention Time 4.7 [11]: 0.73 | Retention Time 5.6 [11]: 93.43 | Decrease in purity of CV-8972 between time points [12]: 1.61 | Retention Time 2.2 [12]: 5.72 | Retention Time 2.6 [12]: 0.9 | Retention Time 4.2 [12]: 0.21 | Retention Time 4.7 [12]: 0.83 | Retention Time 5.6 [12]: 91.82 | Decrease in purity of CV-8972 between time points [13]: 0.02 | Retention Time 2.2 [13]: 6.45 | Retention Time 2.6 [13]: 0.81 | Retention Time 4.7 [13]: 0.93 | Retention Time 5.6 [13]: 91.8 | Decrease in purity of CV-8972 between time points [14]: 2.14 | Retention Time 2.2 [14]: 7.38 | Retention Time 2.6 [14]: 1.54 | Retention Time 4.2 [14]: 0.13 | Retention Time 4.7 [14]: 1.11 | Retention Time 5.6 [14]: 89.66 | Retention Time 2.2 [15]: 5.9 | Retention Time 2.6 [15]: 0.94 | Retention Time 4.2 [15]: 0.22 | Retention Time 4.7 [15]: 0.78 | Retention Time 5.6 [15]: 92.85 | Decrease in purity of CV-8972 between time points [16]: 3.8 | Retention Time 2.2 [16]: 8.12 | Retention Time 2.6 [16]: 1.45 | Retention Time 4.2 [16]: 0.21 | Retention Time 4.7 [16]: 1.17 | Retention Time 5.6 [16]: 89.05 | Decrease in purity of CV-8972 between time points [17]: 2.25 | Retention Time 2.2 [17]: 10.14 | Retention Time 2.6 [17]: 1.48 | Retention Time 4.2 [17]: 0.13 | Retention Time 4.7 [17]: 1.46 | Retention Time 5.6 [17]: 86.8 | Decrease in purity of CV-8972 between time points [18]: 2.01 | Retention Time 2.2 [18]: 11.63 | Retention Time 2.6 [18]: 1.78 | Retention Time 4.2 [18]: 0.13 | Retention Time 4.7 [18]: 1.67 | Retention Time 5.6 [18]: 84.79 | Retention Time 2.2 [19]: 1.33 | Retention Time 4.2 [19]: 1.19 | Retention Time 5.6 [19]: 97.48 | Decrease in purity of CV-8972 between time points [20]: 2.38 | Retention Time 2.2 [20]: 3.73 | Retention Time 4.2 [20]: 1.17 | Retention Time 5.6 [20]: 95.1 | Decrease in purity of CV-8972 between time points [21]: 2.65 | Retention Time 2.2 [21]: 5.25 | Retention Time 2.6 [21]: 0.67 | Retention Time 4.2 [21]: 0.84 | Retention Time 4.7 [21]: 0.79 | Retention Time 5.6 [21]: 92.45 | Decrease in purity of CV-8972 between time points [22]: 1.8 | Retention Time 2.2 [22]: 6.63 | Retention Time 2.6 [22]: 0.9 | Retention Time 4.2 [22]: 0.83 | Retention Time 4.7 [22]: 0.99 | Retention Time 5.6 [22]: 90.65 | Decrease in purity of CV-8972 between time points (289-MBA-15-A 2 mg/mL pH 6 (Form B), 22 hrs, pH 6.7): 1.5
